Source: patent US11981617B2, “Ketamine pamoate and use thereof” (Alar Pharmaceuticals Inc., priority 2019, dated 2024)
Structures can show the parent of a compound that is named as a salt.

Legend:
DEX-treated mice [1] = assay: Forced swimming test (FST) in DEX-induced depression-like animal model; assay type: in vivo, ICR mice; details: 120 mg/kg of ketamine free-base; for onset of antidepressant effect on FST: single injection; for immobility time in FST: single s.c. injection
Description: (§1) ICR mice were intraperitoneally injected with saline or DEX at postnatal day 1 to 3 (P1-P3) with dose decrement of 0.5 mg/kg, 0.3 mg/kg, and 0.1 mg/kg, respectively. The drugs for each group or saline were administered subcutaneously at postnatal day 35, P35 (i.e., dosing day 0, D0), and forced swimming test (FST) was conducted on dosing day 1 (D1, P36) and dosing day 10 (P45) after drug administration. Evaluation of sedation behavior was also conducted by sedation rating scale from the time immediately post injection to dosing day 14 (P49) after drug administration.
(§2) Neonatal ICR mice (BioLASCO, Taipei, Taiwan) were intraperitoneally injected with saline or DEX on postnatal day 1, 2, and 3 (P1, P2, and P3) at doses of 0.5 mg/kg, 0.3 mg/kg, and 0.1 mg/kg, respectively. […] The dugs were then subcutaneously injected into mice of the corresponding groups at postnatal day 35, while the mice of the Control and Saline groups were injected with equal volumes of 0.9% saline. Drugs for administration were prepared in phosphate-buffered saline (PBS), and then well mixed by high speed vortex before injection.
Antidepressant effects were evaluated by forced swimming test (FST), which performed on dosing day 1 (P36) and dosing day 10 (P45) after drug administration. The mice of all groups were trained for swimming before drug administration. During the FST, mice were individually placed into 5 L glass cylinders (height 27 cm, diameter 18 cm) filled with 4 L of water (23±1° C.). The total duration of immobility time during 5 minutes of FST was observed. Results were presented as mean±SEM. Student's t-test was utilized to analyze Saline group (DEX-treated mouse group injected with saline) versus the other groups at each time point. * p<0.05, ** p<0.01, and *** p<0.001 indicate significant differences compared to the Saline group.

[2] = test system: female Sprague Dawley (SD) rats; assay: 3-month repeat-dose toxicology study; details: for neuronal morphology in prefrontal cortex / bladder mucosal folds (histopathology) / bladder apical epithelial surfaces (histopathology): total 1440 mg/kg of ketamine free-base; for neuronal morphology in prefrontal cortex: brain slices; for bladder mucosal folds (histopathology): magnification x40; for bladder apical epithelial surfaces (histopathology): magnification x400; for injection site observation (skin surface) / injection site histopathology: inflammatory cells at higher magnification / injection site histopathology: tissue morphology: KET 60 mg/kg twice weekly, KEP 480 mg/kg monthly; for injection site histopathology: inflammatory cells at higher magnification / injection site histopathology: tissue morphology: HE staining
DEX-treated mice [3] = assay: Sedation behavior by rodent sedation rating scale; assay type: in vivo, ICR mice; details: s.c., 120 mg/kg of ketamine free-base; for sedation behavior (rodent sedation rating scale): immediately post injection to 14 days
Description: as §1, §2
Furthermore, sedation behavior was also evaluated by rodent sedation rating scale (Table 6) immediately post drug administration to 14 days.

[4] = in vivo; cited from earlier work
beagle dogs = assay: Injection site evaluation by Draize skin erythema/eschar rating scale; assay type: in vivo; details: male beagle dogs, individual animals, single 44 mg/kg of ketamine free-base, Day 1, 2, 4, 8, 15
Description: A specific in vivo study to evaluate the injection site reaction of KEP was conducted in beagle dogs ([…] LABES, CO., LTD. Ina, Japan).

Row | Compound | onset of antidepressant effect on FST (DEX-treated mice [1]) | immobility time in FST (DEX-treated mice [1]; day 1 after administration) | immobility time in FST (DEX-treated mice [1]; day 10 after administration) | neuronal morphology in prefrontal cortex ([2]; 12 weeks) | bladder mucosal folds (histopathology) ([2]; 12 weeks) | bladder apical epithelial surfaces (histopathology) ([2]; 12 weeks) | pathological bladder and brain changes ([2]; high dose subchronic treatment for 12 weeks) | injection site observation (skin surface) ([2]; s.c., 12 weeks) | injection site histopathology: inflammatory cells at higher magnification ([2]; s.c., 12 weeks) | injection site histopathology: tissue morphology ([2]; s.c., 12 weeks) | maximum tolerated dose (MTD) ([2]; subcutaneous injection) | sedation behavior (rodent sedation rating scale) (DEX-treated mice [3]) | time to full recovery from sedation (DEX-treated mice [3]; post administration) [h] | LD50 dose [4] [mg/kg] | tolerability of single subcutaneous injection ([2]; 480 mg/kg of ketamine free-base) | density of inflammatory cells at injection site under microscopic fields ([2]; s.c., 12 weeks, KEP 480 mg/kg monthly versus KET 60 mg/kg twice weekly) | Draize skin erythema/eschar observation at injection site (beagle dogs)
1 | CNC1(c2ccccc2Cl)CCCCC1=O (centres unmarked) [KET, ketamine HCl, reference compound] | rapid-onset antidepressant effects | reduced the immobility times | reduced the immobility times | granule cells were lack, and the morphology of pyramidal cells changed to be small or shrinking like in process of degradation | protrusive and enlarged mucosal folds | smooth | bladder fibrosis and neuronal morphology alteration in brain | injection site erythema, which gradually became open wound | infiltration of inflammatory cells in connective tissues | morphology damage on epidermis, dermis, subcutis, and muscle tissues | 60 mg/kg of ketamine free-base | heavy sedation-related behavior | 2 | – | – | – | –
2 | CN[C@@]1(c2ccccc2Cl)CCCCC1=O [R-KEP, R-ketamine pamoate] | rapid-onset antidepressant effects | reduced the immobility times | reduced the immobility times | – | – | – | – | – | – | – | – | normal behavior | – | – | – | – | –
3 | CN[C@]1(c2ccccc2Cl)CCCCC1=O [S-KEP, S-ketamine pamoate] | rapid-onset antidepressant effects | reduced the immobility times | reduced the immobility times | – | – | – | – | – | – | – | – | normal behavior | – | – | – | – | –
4 | CNC1(c2ccccc2Cl)CCCCC1=O (centres unmarked) [ketamine] | – | – | – | – | – | – | – | – | – | – | – | – | – | 229 | – | – | –
5 | R, S-ketamine pamoate [KEP] | rapid-onset antidepressant effects | reduced the immobility times | reduced the immobility times | normal | thin mucosal folds | rough | – | normal skin surfaces | infiltration of inflammatory cells in connective tissues | normal morphology of skin slices | – | normal behavior | – | – | well tolerable | much less than KET group | No erythema
